The test system of test [1] is IL-8–activated human neutrophils. Kind of test: Chemotaxis of IL-8–activated human neutrophils (transwell, CellTiter Glo). As to conditions: for Neutrophilic chemotaxis, RLU, Mean / Neutrophilic chemotaxis: % reduction / Neutrophilic chemotaxis, RLU, single replicates: IL-8; for Neutrophilic chemotaxis, RLU, single replicates: listed as Ref. The format is cell-based. From the text: Buffy coat (blood sample fraction comprising white blood cells and platelets) from whole blood was obtained from a healthy adult volunteer at the Croatian Institute of Transfusion Medicine (CITM; Zagreb, Croatia). The CITM ethics committee approved the blood collection process, and the volunteer provided written informed consent prior to blood collection. Neutrophils were isolated from the buffy coat, an aliquot of which was used for cell counting via hematologic analyzer (X500i; Sysmex). […] The diluted buffy coat was drawn into sterile 50-mL syringes and incubated for 30 minutes at RT. Following incubation, the upper layer of leukocyte-rich plasma (35 mL) was decanted into a new sterile 50-mL conical centrifuge tube, carefully layered onto 15 mL of Lymphoprep (Axis-Shield Diagnostics, Ltd., Dundee, UK) and centrifuged at 400×g (brake turned off) for 35 minutes at RT. The supernatant and mononuclear ring were discarded, and the pellet was resuspended in 10 mL of cold sterile MilliQ water. […] Resuspended neutrophils were counted via Sysmex X500i hematologic analyzer.
All test compounds were reconstituted in DMSO (Sigma-Aldrich Chemie GmbH) to 100-mM stock concentrations, taking into consideration and correcting for salt and purity. A 30-mM stock solution of reference compound Sch527123 (MedChemExpress, Monmouth Junction, NJ, USA) was diluted to 10 mM with DMSO.
DMSO was used as vehicle. […] The reference compound was tested at concentrations of 0.003, 0.01, 0.03, 0.1, 0.3, 1, 3, and 10 μM. All compounds were tested in triplicate, and the final DMSO concentration was 0.1% per well.
Test and reference compound working solutions were then added (20 μL/well) for a 10-fold dilution to final testing concentrations. Compounds and cells were mixed by gentle pipetting, and the plate was pre-incubated for 30 minutes at RT with gentle mixing by pipetting.
Negative control wells received 180 μL of migration medium alone. To all wells, 20 μL of compound working solutions or DMSO vehicle was added. Once pre-incubation of cells with compounds was complete, the transwell inserts were carefully placed on the receiver plate, with caution to avoid air bubble formation, which could prevent cell migration. To the upper wells, 75 μL of cell suspension (375,000 cells/well) was added, taking care not to tear the membrane with pipette tips.
After incubation, the number of cells that migrated to the lower wells was quantified by removing the Transwell insert and adding 200 μL of CellTiter Glo reagent (CellTiter-Glo Luminescent Cell Viability Assay, Promega, Madison, WI, USA) to each lower well to quantify the amount of adenosine triphosphate (ATP) present, signaling the presence of metabolically active cells. The plate was incubated for 10 minutes in the dark at RT, followed by transferring 150 μL of solution into wells of a white 96-well plate (Lumitrac 200; Greiner Bio-One International GmbH, Kremsmunster, Austria).
For the chemotaxis and cytotoxicity evaluations, average relative light unit values were calculated from all untreated vehicle samples and, for each sample, percentage of vehicle value was calculated. The tested compound was considered cytotoxic if reduction from untreated vehicle was ≥20%.
For orientation: Cellular ATP, detected with luciferase, serves as a proxy for viable cell number.

Test [2] has as its system methicillin-resistant Staphylococcus aureus wound infection. Further details: method as in PMID 32079232. To be noted: MRSA wound infection mouse model; cited from earlier work.
Test [3] has as its system LPS-induced acute lung injury. To be noted: cited from earlier work.
Test [4] concerns murine RAW 264.7 macrophages. As to conditions: cited from earlier work.

Where “and” joins values, the source holds several entries; their conditions need not be identical. Equal values may be shown once.

Consider `CC[C@@H](Nc1c(Nc2cccc(C(=O)N(C)C)c2O)c(=O)c1=O)c1ccc(C)o1` [Sch527123], for which the “IL-8–induced chemotaxis of human neutrophils” value in test [1] (0.003 to 10 μM) is recorded as “dose-dependent inhibition”. The “Neutrophilic chemotaxis, RLU, Mean” value in test [1] (0.003 µM) came to 136013 RLU; in test [1] (0.01 µM), 145907 RLU; in test [1] (0.03 µM), 131720 RLU; in test [1] (0.1 µM) it was 87493 RLU; in test [1] (0.3 µM) it was 34307 RLU; in test [1] (1 µM), 20080 RLU. For the same compound, the “Neutrophilic chemotaxis, RLU, Mean” value in test [1] (3 µM) was determined as 18067 RLU; in test [1] (10 µM), 19573 RLU. For the same compound, the “Neutrophilic chemotaxis: % reduction” value is given as -2.55% in test [1] (0.003 µM); -11% in test [1] (0.01 µM); 1.09% in test [1] (0.03 µM); 39% in test [1] (0.1 µM); 84% in test [1] (0.3 µM); 96% in test [1] (1 µM). Further, the “Neutrophilic chemotaxis: % reduction” value in test [1] (3 µM) was 97%; in test [1] (10 µM) it was 96%. The “Neutrophilic chemotaxis, RLU, single replicates” value was 126680 RLU and 141280 RLU and 140080 RLU in test [1] (0.003 µM); 164560 RLU and 147560 RLU and 125600 RLU in test [1] (0.01 µM); 131800 RLU and 131640 RLU in test [1] (0.03 µM); 83280 RLU and 83800 RLU and 95400 RLU in test [1] (0.1 µM); 34560 RLU and 36480 RLU and 31880 RLU in test [1] (0.3 µM); 21040 RLU and 22120 RLU and 17080 RLU in test [1] (1 µM). Besides, the “Neutrophilic chemotaxis, RLU, single replicates” value was 19800 RLU and 19160 RLU and 15240 RLU in test [1] (3 µM); 21800 RLU and 20760 RLU and 16160 RLU in test [1] (10 µM).

With `C=C[C@]1(C)C[C@@H](OC(=O)CSc2ccccc2N)[C@]2(C)[C@H](C)CC[C@]3(CCC(=O)[C@H]32)[C@@H](C)[C@@H]1O` [amphenmulin, 22-(2-amino-phenylsulfanyl)-22-deoxypleuromutilin], the “TNF-α, IL-6, and CCL-2 serum levels” value in test [2] is recorded as “significantly reduced”.

As to `CC[C@H]1OC(=O)[C@H](C)[C@@H](O[C@H]2C[C@@](C)(OC)[C@@H](O)[C@H](C)O2)[C@H](C)[C@@H](O[C@@H]2O[C@H](C)C[C@H](N(C)C)[C@H]2O)[C@](C)(OC)C[C@@H](C)C(=O)[C@H](C)[C@@H](O)[C@]1(C)O` [clarithromycin], the neutrophil recruitment entry in test [3] (pretreatment in LPS-induced acute lung injury models) was “significantly reduced”.

Regarding `C=C[C@]1(C)C[C@@H](OC(=O)CSC(C)(C)CNC(=O)[C@H](N)C(C)C)[C@]2(C)[C@H](C)CC[C@]3(CCC(=O)[C@H]32)[C@@H](C)[C@@H]1O` [valnemulin], in test [3] (pretreated mice vs no-treatment control group), the “LPS-induced pulmonary edema, accumulation of inflammatory cells in BALF, and increased inflammatory cytokines (eg, TNF-α and IL-6)” value is “significantly attenuated”. Besides, the “LPS-induced production of inflammatory mediators, including nitric oxide, prostaglandin E2, TNF-α, and IL-6” value in test [4] is recorded as “significantly inhibited”.

The values above are taken from PMC8480901 (PLoS ONE, 2021).
